Test results as given in PubChem BioAssay (NCI).
Where “and” joins values, the source holds several entries; their conditions need not be identical. Equal entries are not always repeated.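 Growth conditions: 96-well plates. Treatment: test compound, 48 hours, 5 concentrations. Analysis: linear interpolation between bracketing concentrations; unreached endpoints set to highest concentration. GI50: concentration for 50% inhibition of growth. Definition used: TGI = concentration required for complete inhibition of growth.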 Numbered stars: 1 amine (or outer) side, 2 acyl side, 3 side chain; on linkers, the order of the positions; unused ones are H or OH. Bridge positions count the residues as written; N and C are the ends. Square brackets hold non-standard residues; d marks the D form. Peptide text beside a SMILES is read from it. I, II: the chains in the order shown. Actinocin(9to1) = Cc1c2oc3c(C)ccc(C(=O)[*:1])c3nc-2c(C(=O)[*:2])c(N)c1=O; aThr = C[C@H](O)[C@H](N)C(=O)O; NMeV = CN[C@H](C(=O)O)C(C)C; Sar = CNCC(=O)O

Columns and labels:
Test in all cases: NCI tumour cell line growth inhibition, 48 h
DLD-1 colon = tested on: DLD-1 colon
DMS 114 small cell lung = tested on: DMS 114 small cell lung
DMS 273 small cell lung = tested on: DMS 273 small cell lung
HOP-18 NSCLC = tested on: HOP-18 NSCLC
HS 578T breast = tested on: HS 578T breast
KM20L2 colon = tested on: KM20L2 colon
LXFL 529 NSCLC = tested on: LXFL 529 NSCLC
M19-MEL melanoma = tested on: M19-MEL melanoma
MCF7 breast = tested on: MCF7 breast
P388 leukemia = tested on: P388 leukemia
P388/ADR leukemia = tested on: P388/ADR leukemia
SN12K1 renal = tested on: SN12K1 renal
SNB-75 CNS = tested on: SNB-75 CNS
SNB-78 CNS = tested on: SNB-78 CNS
T-47D breast = tested on: T-47D breast
XF 498 CNS = tested on: XF 498 CNS
786-0 renal = tested on: 786-0 renal
A498 renal = tested on: A498 renal
A549 NSCLC = tested on: A549 NSCLC
ACHN renal = tested on: ACHN renal
CAKI-1 renal = tested on: CAKI-1 renal
CCRF-CEM leukemia = tested on: CCRF-CEM leukemia
COLO 205 colon = tested on: COLO 205 colon
EKVX NSCLC = tested on: EKVX NSCLC
HCC-2998 colon = tested on: HCC-2998 colon
HCT-116 colon = tested on: HCT-116 colon
HCT-15 colon = tested on: HCT-15 colon
HL-60(TB) leukemia = tested on: HL-60(TB) leukemia
HOP-62 NSCLC = tested on: HOP-62 NSCLC
HOP-92 NSCLC = tested on: HOP-92 NSCLC
HT29 colon = tested on: HT29 colon
IGROV1 ovarian = tested on: IGROV1 ovarian
K-562 leukemia = tested on: K-562 leukemia
KM12 colon = tested on: KM12 colon
LOX IMVI melanoma = tested on: LOX IMVI melanoma
M14 melanoma = tested on: M14 melanoma
MALME-3M melanoma = tested on: MALME-3M melanoma
MOLT-4 leukemia = tested on: MOLT-4 leukemia
NCI-H226 lung = tested on: NCI-H226 lung
NCI-H23 lung = tested on: NCI-H23 lung
NCI-H460 lung = tested on: NCI-H460 lung
NCI-H522 lung = tested on: NCI-H522 lung
OVCAR-3 ovarian = tested on: OVCAR-3 ovarian
OVCAR-4 ovarian = tested on: OVCAR-4 ovarian
OVCAR-5 ovarian = tested on: OVCAR-5 ovarian
OVCAR-8 ovarian = tested on: OVCAR-8 ovarian
RPMI-8226 leukemia = tested on: RPMI-8226 leukemia
RXF 393 renal = tested on: RXF 393 renal
RXF-631 renal = tested on: RXF-631 renal
SF-268 CNS = tested on: SF-268 CNS
SF-295 CNS = tested on: SF-295 CNS
SF-539 CNS = tested on: SF-539 CNS
SK-MEL-2 melanoma = tested on: SK-MEL-2 melanoma
SK-MEL-28 melanoma = tested on: SK-MEL-28 melanoma
SK-MEL-5 melanoma = tested on: SK-MEL-5 melanoma
SK-OV-3 ovarian = tested on: SK-OV-3 ovarian
SN12C renal = tested on: SN12C renal
SNB-19 CNS = tested on: SNB-19 CNS
SW-620 colon = tested on: SW-620 colon
TK-10 renal = tested on: TK-10 renal
U251 CNS = tested on: U251 CNS
UACC-257 melanoma = tested on: UACC-257 melanoma
UACC-62 melanoma = tested on: UACC-62 melanoma
UO-31 renal = tested on: UO-31 renal

Cc1c2oc3c(C)ccc(C(=O)N[C@@H]4C(=O)N[C@H](C(C)C)C(=O)N5CCC[C@H]5C(=O)N(C)CC(=O)N(C)[C@@H](C(C)C)C(=O)O[C@H]4C)c3nc-2c(C(=O)N[C@@H]2C(=O)N[C@H](C(C)C)C(=O)N3CCC[C@H]3C(=O)N(C)CC(=O)N(C)[C@@H](C(C)C)C(=O)O[C@H]2C)c(N)c1=O (I: [aThr][dV]P[Sar][NMeV] / II: [aThr][dV]P[Sar][NMeV]; ester I:1-I:C, II:1-II:C; linker I:N-II:N via Actinocin(9to1))
GI50 (DLD-1 colon): 1.9 nM
TGI (DLD-1 colon): 208 nM and 1200 nM
GI50 (DMS 114 small cell lung): 1.01 nM
TGI (DMS 114 small cell lung): 18.7 nM and 12.2 nM
GI50 (DMS 273 small cell lung): 0.783 nM
TGI (DMS 273 small cell lung): 26 nM and 17.8 nM
GI50 (HOP-18 NSCLC): 9.03 nM
TGI (HOP-18 NSCLC): 123 nM and 125 nM
TGI (HS 578T breast): 47.7 nM [middle of 4 runs]
GI50 (KM20L2 colon): 0.964 nM
TGI (KM20L2 colon): 106 nM and 85.9 nM
GI50 (LXFL 529 NSCLC): 1.39 nM and 0.348 nM
TGI (LXFL 529 NSCLC): 70 nM and 320 nM
GI50 (M19-MEL melanoma): 0.496 nM
TGI (M19-MEL melanoma): 19.4 nM and 12.7 nM
TGI (MCF7 breast): 69.3 nM and 250 nM and 197 nM
TGI (P388 leukemia): 15.4 nM
TGI (P388/ADR leukemia): 171 nM
TGI (SN12K1 renal): 148 nM
TGI (SNB-75 CNS): 24.6 nM [middle of 6 runs]
GI50 (SNB-78 CNS): 4.47 nM
TGI (SNB-78 CNS): 117 nM and 315 nM
TGI (T-47D breast): 34.3 nM [middle of 4 runs]
GI50 (XF 498 CNS): 0.444 nM
TGI (XF 498 CNS): 12.8 nM and 3.03 nM

CC1C(O)=C(O)c2ccccc2N1O (configuration not stated)
TGI (786-0 renal): > 100000 nM
TGI (A498 renal): > 100000 nM
TGI (A549 NSCLC): > 100000 nM
TGI (ACHN renal): > 100000 nM
TGI (CAKI-1 renal): > 100000 nM
TGI (CCRF-CEM leukemia): > 100000 nM
TGI (COLO 205 colon): > 100000 nM
TGI (DLD-1 colon): > 100000 nM
TGI (DMS 273 small cell lung): > 100000 nM
TGI (EKVX NSCLC): > 100000 nM
TGI (HCC-2998 colon): > 100000 nM
TGI (HCT-116 colon): > 100000 nM
TGI (HCT-15 colon): > 100000 nM
TGI (HL-60(TB) leukemia): > 100000 nM
TGI (HOP-18 NSCLC): > 100000 nM
TGI (HOP-62 NSCLC): > 100000 nM
TGI (HOP-92 NSCLC): > 100000 nM
TGI (HT29 colon): > 100000 nM
TGI (IGROV1 ovarian): > 100000 nM
TGI (K-562 leukemia): > 100000 nM
TGI (KM12 colon): > 100000 nM
TGI (KM20L2 colon): > 100000 nM
TGI (LOX IMVI melanoma): > 100000 nM
TGI (LXFL 529 NSCLC): > 100000 nM
TGI (M14 melanoma): > 100000 nM
TGI (M19-MEL melanoma): > 100000 nM
TGI (MALME-3M melanoma): > 100000 nM
TGI (MOLT-4 leukemia): > 100000 nM
TGI (NCI-H226 lung): > 100000 nM
TGI (NCI-H23 lung): > 100000 nM
TGI (NCI-H460 lung): > 100000 nM
TGI (NCI-H522 lung): > 100000 nM
TGI (OVCAR-3 ovarian): > 100000 nM
TGI (OVCAR-4 ovarian): > 100000 nM
TGI (OVCAR-5 ovarian): > 100000 nM
TGI (OVCAR-8 ovarian): > 100000 nM
TGI (RPMI-8226 leukemia): > 100000 nM
TGI (RXF 393 renal): > 100000 nM
TGI (RXF-631 renal): > 100000 nM
TGI (SF-268 CNS): > 100000 nM
TGI (SF-295 CNS): > 100000 nM
TGI (SF-539 CNS): > 100000 nM
TGI (SK-MEL-2 melanoma): > 100000 nM
TGI (SK-MEL-28 melanoma): > 100000 nM
TGI (SK-MEL-5 melanoma): > 100000 nM
TGI (SK-OV-3 ovarian): > 100000 nM
TGI (SN12C renal): > 100000 nM
TGI (SNB-19 CNS): > 100000 nM
TGI (SNB-75 CNS): > 100000 nM
TGI (SNB-78 CNS): > 100000 nM
TGI (SW-620 colon): > 100000 nM
TGI (TK-10 renal): > 100000 nM
TGI (U251 CNS): > 100000 nM
TGI (UACC-257 melanoma): > 100000 nM
TGI (UACC-62 melanoma): > 100000 nM
TGI (UO-31 renal): > 100000 nM
TGI (XF 498 CNS): > 100000 nM
